Read-outs that look alike come from different tables or passages of the source.

What is called Emax is the maximal effect, on the per cent scale that the assay sets. As a reminder, the EC50 is the concentration giving half of the maximal effect. As usually defined, the pEC50 is −log10 of the EC50, conventionally taken in molar units.

Experiment [1] has as its target T1, MT2 (Homo sapiens, UniProt P49286).
T1 sequence (P49286 1-362): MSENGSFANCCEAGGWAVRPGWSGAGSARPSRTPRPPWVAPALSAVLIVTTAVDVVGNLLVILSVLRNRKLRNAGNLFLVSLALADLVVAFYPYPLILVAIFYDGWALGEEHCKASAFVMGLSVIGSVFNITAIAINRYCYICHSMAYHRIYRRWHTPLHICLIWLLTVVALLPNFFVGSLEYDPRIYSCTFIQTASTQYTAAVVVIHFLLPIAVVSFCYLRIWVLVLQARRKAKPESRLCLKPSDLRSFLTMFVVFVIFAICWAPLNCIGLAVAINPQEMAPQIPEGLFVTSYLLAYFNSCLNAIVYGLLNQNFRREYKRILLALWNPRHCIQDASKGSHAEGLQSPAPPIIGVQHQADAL
Description: cAMP assay (GloSensor), isoproterenol-stimulated cAMP in HEK cells. The experiment is classed as cell-based. The arrangement: expressed in transfected cells; host or cells: HEK-T (HEK-293 T) cells, co-transfected with GloSensor DNA; MT2 activity: dose or concentration left out as unconfirmed. To be noted: for Emax: read-out: MT2 % Emax (converted); for MT2 pEC50: Table 2. How it is done: MT1 and MT2 receptors were tested using Promega's spilt luciferase based GboSensor cAMP biosensor technology. HEK-T cells were plated in 15 cm cell culture dish (at a density of 18 million cells) containing DMEM composed of 10% dialyzed FBS, 2 mM L-glutamine, 100 units/ml penicillin G, 100 μg/ml streptomycin for 4-6 hour. Then, cells were co-transfected with 8 μg of construct which encodes either MT1 or MT2 (de-Tangonized constructs) and […] of Glosensor DNA. […] The next day, cell medium were discarded and loaded with 20 μl of assay buffer (1×HBSS, 20 mM HEPES, pH 7.4, 0.1% BSA). To measure agonist activity of MT1 or MT2 receptor, 10 μl of test compound solution at 3× final concentration was added for 15 minutes followed by addition of 10 μl of luciferin/isoproterenol mixture (at a final concentration of 4 mM and 200 nM respectively) for another 15 mins for luminescence quantification. Then, plates were counted using SpectraMax luminescence reader (Molecular Device). Data were analyzed using GraphPad Prism 6.0.

The target of experiment [2] is T2, hMT1 (Homo sapiens, UniProt P48039). Described as above. The experiment is classed as cell-based. Details: expressed in transfected cells; host or cells: HEK-T (HEK-293 T) cells, co-transfected with GloSensor DNA. To be noted: for Emax: read-out: MT1 % Emax (converted). How it is done:
HEK-293 T cells were maintained with complete Dulbecco's modified Eagle's medium (DMEM), which is composed of 10% fetal bovine serum (FBS), 2 mM L-glutamine, 100 units/ml penicillin G, 100 μg/ml streptomycin at 37° C. in the presence of 5% CO2
MT1 and MT2 receptors were tested using Promega's spilt luciferase based GboSensor cAMP biosensor technology. HEK-T cells were plated in 15 cm cell culture dish (at a density of 18 million cells) containing DMEM composed of 10% dialyzed FBS, 2 mM L-glutamine, 100 units/ml penicillin G, 100 μg/ml streptomycin for 4-6 hour. Then, cells were co-transfected with 8 μg of construct which encodes either MT1 or MT2 (de-Tangonized constructs) and […] of Glosensor DNA. Next day, transfected cells were seeded into poly-L-lysinecoated 384-well white clear bottom cell culture plates with complete DMEM with 1% dialized FBS at a density of 20,000 cells per well for another 24 h. The next day, cell medium were discarded and loaded with 20 μl of assay buffer (1×HBSS, 20 mM HEPES, pH 7.4, 0.1% BSA). To measure agonist activity of MT1 or MT2 receptor, 10 μl of test compound solution at 3× final concentration was added for 15 minutes followed by addition of 10 μl of luciferin/isoproterenol mixture (at a final concentration of 4 mM and 200 nM respectively) for another 15 mins for luminescence quantification. Then, plates were counted using SpectraMax luminescence reader (Molecular Device). Data were analyzed using GraphPad Prism 6.0.

The target of experiment [3] is T1, MT2. Description: Ligand bias quantification (G protein vs β-arrestin pathway, melatonin as reference). The experiment is classed as cell-based. To be noted: at MT2; bias factor 10^ΔΔLog(Emax/EC50). Details: expressed in transfected cells; host or cells: HEK-T cells (Gi/cAMP arm) and HTLA cells (β-arrestin Tango arm).
The subject of the next experiment is C3H/HeN mice. The experiment in a line: Re-entrainment of running wheel activity after 6 h advance of dark onset (jet-lag model). The experiment is classed as in vivo. The following applies: 30 μg/mouse s.c., 3 days, WT; in words. An excerpt:
Male and female C3H/HeN (C3H) wild-type (WT), MT1 knockout (MT1KO), and MT2 knockout (MT2KO) mice (average 6.28 months) used in this study were raised in our breeding colony at University at Buffalo. […] Genotype was confirmed using tail samples at the end of each experiment and was verified periodically during the tenure of the colony. The strains of mice in our breeding colony were re-derived periodically by backcrossing with WT mice to reduce genetic drift.
Mice were group housed (3-5 per cage) with corncob bedding in polycarbonate translucent cages (30×19 cm) and maintained in a 14/10 light-dark (LD) cycle (Zeitgeber time 0 or ZT0 corresponds to Lights ON and ZT 14 to Lights OFF) in temperature and humidity controlled rooms with ad libitum access to food and water in the Laboratory Animal Facility at the University at Buffalo. Light levels were 200-300 lux at the level of the cage. Treatments and animal care performed in the dark were under a dim red safelight (15 watts, Kodak 1A filter) with illuminance of less than 3-5 lux (Benloucif, S. & Dubocovich, M. L. J Biol Rhythms 11, 113-125, (1996). All experimental procedures using mice were conducted in accordance with guidelines set forth by the National Institutes of Health and approved by the University at Buffalo Institutional Animal Care and Use Committee.
Circadian rhythm phase was determined for each mouse using the onset of running wheel activity defined as CT12 (Circadian Time 12). Running wheel activity was measured continuously via magnetic microswitches detecting wheel revolutions with a computer equipped with Clocklab data collection Software™ (Actimetrics: Wilmette, Ill.). All actigraphy data was visualized and analyzed using ClockLab™ and MATLAB™ software. All mice were individually housed in cages (33×15 cm) equipped with running wheels in light-tight ventilated cabinets with controlled temperature and LD cycles (Phenome Technologies: Skokie, Ill.). Male and female mice were housed in separate cabinets for all experiments.
Male and female C3H WT, MT1KO, and MT2KO mice (3 to 6 months) were maintained under a 12:12 LD cycle for at least 2 weeks prior experimental manipulations to allow stable entrainment to dark onset before advance of the LD cycle. Actigraphy data was recorded as described above and all experiment protocols performed as described (Dubocovich, M. L. et al., J Pineal Res 39, 113-120, 2005). On the first day of treatment, the dark onset was advanced 6 h. […] Post treatment, mice were given 14-20 days to re-entrain running wheel activity onsets to the new dark onset. Using exported running wheel activity onsets from actograms, onset hours advanced each day were determined by subtracting this value each day from the average onset of running wheel activity for 3 days prior to treatment for each mouse. Further, using the data from this calculation combined with visualization of actograms, the number of days to reach stable re-entrainment was determined for each mouse.
All statistical analyses as described in further detail for each experiment were conducted using GraphPad Prism 8™ (La Jolla, Calif.). All data sets were visualized for normality using QQ plots of predicted vs. actual residuals. Actigraphy data was generated for visualization blind to treatment prior to the quantification and statistical analysis stages. […] Data in FIGS. 4F & 4G were compared via a two-way ANOVA (3×2: genotype x treatment) with Tukey's post hoc analyses (P<0.05). […]

Experiment [4] addresses T2, hMT1. The experiment in a line: 2-[125I]-iodomelatonin competition binding, CHO cell membranes. To be noted: CHO-hMT1; affinity shift by G protein inactivation.
Description: For receptor binding studies, '7447 was dissolved in 50% DMSO/50% ethanol for 13 mM stock solution, diluted 1/10 in 100% ethanol then 1/10 again in 50% ethanol/50% Tris-HCl buffer. Both '3384 and '4226 were dissolved in 100% ethanol for 13 mM stock solutions and then diluted 1/10 in 50% ethanol/50% Tris-HCl buffer. Further dilutions were done in Tris-HCl buffer.
Assays were incubated for 1 hour at 25° C. Bound radioligand was separated from freeby rapidvacuum filtration using glass microfiber filters (Whatman, Krackeler Scientific, Inc., Albany N.Y., USA) saturated in 0.5% polyethylenimine solution.
Affinity shifts or lack thereof with G protein inactivation indicate apparent efficacy (Lefkowitz, R. J. et al., J Biol Chem 251, 4686-4692, 1976) as ligands are classified as agonists (ΔpKi% MLT>20%), antagonists (ΔpKi% MLT<20%, >−20%), or inverse agonists (ΔpKi% MLT<−20%) accordingly.
The mark [5] stands for this setting: HEK293, Table 1, agonist, normalized to melatonin response.
The mark [6] stands for this setting: HEK293, Table 2, cell marked Inverse (inverse agonist).
The mark [7] stands for this setting: HEK293, Table 2, agonist, normalized to melatonin response.
Setting [8] is: Table 1, agonist, normalized to melatonin response.

T2 sequence (P48039 whole entry): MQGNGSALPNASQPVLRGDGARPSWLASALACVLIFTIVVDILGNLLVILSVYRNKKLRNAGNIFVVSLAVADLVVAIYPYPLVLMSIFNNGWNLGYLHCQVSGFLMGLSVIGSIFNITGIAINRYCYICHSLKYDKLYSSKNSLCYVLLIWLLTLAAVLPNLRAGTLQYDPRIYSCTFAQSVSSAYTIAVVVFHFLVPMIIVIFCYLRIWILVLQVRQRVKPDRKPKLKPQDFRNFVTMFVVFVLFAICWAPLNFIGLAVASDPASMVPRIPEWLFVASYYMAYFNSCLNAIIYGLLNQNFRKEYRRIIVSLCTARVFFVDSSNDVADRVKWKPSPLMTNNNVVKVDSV

With `COc1ccc2c(c1)N(Cc1ccc(C#N)c(OC)c1)CCO2` [ZINC442850041], the “selectivity for the MT2 receptor” value at MT2 [1] was 25 fold. Moreover, the maximal effect (Emax) at MT2 [1] (setting [5]) is 97%; at hMT1 [2] (setting [5]) it was 99%. The EC50 on MT2 [1] (agonist, read-out: EC50 at MT2) is 0.00047 µM. Further, the “MT1 pEC50” value on hMT1 [2] (Table 1, agonist) came to 7.91 ± 0.04. Also, the Bias at MT2 [3] was 0.046.
In the case of `Clc1ccc(CNc2cccc(-c3nnc[nH]3)c2)c(Cl)c1` [ZINC157676497], the Emax at MT2 [1] (setting [6]) was 62%; on hMT1 [2] (setting [6]) it was 60%. For the same molecule, on MT2 [1] (cell marked Inverse (inverse agonist)), the “MT2 pEC50” value was determined as 6.01 ± 0.30. The “MT1 pEC50” value at hMT1 [2] (Table 2, cell marked Inverse (inverse agonist)) came out at 7.32 ± 0.05.
For `COc1ccc2c(c1)N(Cc1ccn(C)c(=O)c1)CCO2` [ZINC608506688], the Emax at MT2 [1] (setting [7]) is 89%; on hMT1 [2] (setting [7]), 99%. The “MT2 pEC50” value at MT2 [1] (agonist) turned out to be 8.60 ± 0.10. Further, on hMT1 [2] (Table 2, agonist), the “MT1 pEC50” value worked out at 9.78 ± 0.13. On MT2 [3], this molecule came in with a Bias of 8.2.
Turning to `COC(=O)c1sc(N(C)Cc2ccc(Cl)nc2)nc1Cl` [ZINC92585174], the Emax is 74% at MT2 [1] (setting [5]) and 98% at hMT1 [2] (setting [5]). Also, the “MT1 pEC50” value on hMT1 [2] (Table 1, agonist) is listed as 7.80 ± 0.17.
The corresponding values for `CCc1nc(SCc2cccc(C(=O)OC)c2)nc(O)c1C` [ZINC576887661] are 68%, 83% and 7.10 ± 0.19.
Consider `COc1ccc2[nH]cc(CCNC(C)=O)c2c1` [Melatonin, reference compound], for which the “rate of re-entrainment to the new light-dark cycle” value with C3H/HeN mice is “accelerated re-entrainment”. Also, the “ΔpKi (pKi control − pKi inactive)” value at hMT1 [4] was determined as 1.19.
With `COc1ccc(CN(C(=O)C2CC2C)c2ccncc2)cc1` (stereo not drawn) [ZINC151209032], the MT2 activity entry at MT2 [1] is on record as “without detectable MT2 activity”. Also, the Emax on hMT1 [2] (setting [5]) is 88%. Also, the EC50 at hMT1 [2] (agonist, read-out: EC50 at MT1) lay within 2 to 6 µM.
In the case of `COC(=O)c1ccc(CSc2nnc(C3CC3)[nH]2)s1` [ZINC159050207], on MT2 [1] (setting [8]), the “MT2 % Emax” value came out at 83 ± 3%. Besides, the “selectivity for the MT1 v. the MT2 receptor type” value at hMT1 [2] came to 2 fold. For the same molecule, the “MT1 % Emax” value on hMT1 [2] (setting [8]) is 99 ± 1%. On hMT1 [2] (agonist), the “Emax(%) at MT1” value stood at 99±1% and the “pEC50 at MT1” value is given as 9.00±0.15.
For the molecule `COc1ccc(CN(C(=O)c2ccccc2F)c2ccncc2)cc1` [ZINC151192780], at MT2 [1] (FIG. 7 analogs of '9032), the “selectivity for MT2 over MT1” value was 200 fold. Also, the figures for the Emax at MT2 [1] (setting [7]) and on hMT1 [2] (setting [7]) were 95% and 54%, respectively. Also, at MT2 [1] (agonist), the “MT2 pEC50” value is on record as 7.13 ± 0.12. Further, the “MT1 pEC50” value at hMT1 [2] (Table 2, agonist) stood at 5.18 ± 0.22.

The values are drawn from US20230052740A1, “MODULATORS OF CIRCADIAN RHYTHMS AND USES THEREOF” (The Regents of the University of California, priority 2019, published 2023).
